Laboratory results as given in patent US20260124213A1, “STAPHYLOCOCCUS AUREUS PBP4 INHIBITORS AND METHOD OF USE” (UNIVERSITY OF ROCHESTER, priority 2022, published 2026).
“And” between values parts separate entries of the source, which are not always exact repeats. Identical values can stand only once. Like-named read-outs stand apart in the source and are kept apart here.

Legend:
recombinant PBP4 = assay: BOCILLIN FL labeling of PBP4, gel electrophoresis and fluorescence detection; type: binding; details: kanamycin 2000 μM or 5000 μM
Experimental: PBP4 BOCILLIN™ FL Binding Competition Assays. The ability of putative PBP4 inhibitors to impact the active site of recombinant PBP4 was assessed using two previously established BOCILLIN™-FL Penicillin (Penicillin V conjugated to BODIPY fluorescent dye) binding assays. First, fluorescence polarization assays were performed as previously described. Briefly, the indicated amount of the putative PBP4 inhibitor or control antibiotic was incubated with 1 μM recombinant B. subtilis PBP4 or S. aureus PBP2a in potassium phosphate buffer (40 mM K2HPO4 and 10 mM KH2PO4) for 1 hour in black 96-well microtiter plates (Corning Life Sciences®, Corning, NY). […] BOCILLIN™ FL fluorescence polarization was measured at (495nm excitation and 545nm emission) in a SpectraMax® M5 multimode plate reader (Molecular Devices®, San Jose, CA). […] Second, gel electrophoresis and fluorescence detection were used to measure BOCILLIN™ FL labeling of PBP4 treated with the known PBP4 inhibitor cefoxitin (positive control), kanamycin (negative control) or 9314848 (test compound). […] BOCILLIN™ FL labeled PBP4 was imaged at λ=365 nm using a BioRad© Gel Doc EZ™ Imaging system and the gel was then subsequently stained with Bio-safe Coomassie Brilliant Blue stain (BioRad©, Hercules, CA, USA) to measure the amount of protein present in each reaction condition and analyzed using NIH-ImageJ software. […]

MRSA strain AH-1263 = assay: Broth microdilution antibiotic potentiation; type: cell-based, Staphylococcus aureus; details: for MIC: Staphylococcus aureus, MRSA
Experimental: (§1) Broth Microdilution Method for Antibiotic Potentiation with MRSA Strains. Bacteria were cultured for 6 hours in CAMHB and sub-cultured to 5×10^5 CFU/mL in CAMHB. Subcultures were aliquoted (4 mL) into culture tubes and then inoculated with compound from 10 mM or 100 mM stock in DMSO to the desired concentration. […]. Bacteria treated with antibiotic alone served as the control. Samples from the secondary culture tubes were then aliquoted (200 μL) into the first row of wells of a 96-well microtiter plate. Rows 2-11 were filled (100 μL) with the remaining 4 mL of bacterial subculture containing the adjuvant. Row 12 was filled (100 μL) with uninoculated media. From row 1, 100 μL was transferred to row two and mixed 5-8 times before being transferred to row 3. This procedure was used to serial dilute the rest of the rows through 10. The microtiter plate was then covered in Press 'n Seal and incubated at 37° C.

[1] = system: MRSA strain ATCC BAA-1556; assay: Broth microdilution antibiotic potentiation; type: cell-based, Staphylococcus aureus; details: for MIC: Staphylococcus aureus
Experimental: as §1

MRSA strain AH-2204 = assay: Broth microdilution antibiotic potentiation; type: cell-based, Staphylococcus aureus; details: Staphylococcus aureus, MRSA
Experimental: as §1

[2] = target: recombinant B. subtilis PBP4 (Bacillus subtilis, UniProt P40750); assay: BOCILLIN FL fluorescence polarization binding competition
Sequence of recombinant B. subtilis PBP4 (P40750 22-624): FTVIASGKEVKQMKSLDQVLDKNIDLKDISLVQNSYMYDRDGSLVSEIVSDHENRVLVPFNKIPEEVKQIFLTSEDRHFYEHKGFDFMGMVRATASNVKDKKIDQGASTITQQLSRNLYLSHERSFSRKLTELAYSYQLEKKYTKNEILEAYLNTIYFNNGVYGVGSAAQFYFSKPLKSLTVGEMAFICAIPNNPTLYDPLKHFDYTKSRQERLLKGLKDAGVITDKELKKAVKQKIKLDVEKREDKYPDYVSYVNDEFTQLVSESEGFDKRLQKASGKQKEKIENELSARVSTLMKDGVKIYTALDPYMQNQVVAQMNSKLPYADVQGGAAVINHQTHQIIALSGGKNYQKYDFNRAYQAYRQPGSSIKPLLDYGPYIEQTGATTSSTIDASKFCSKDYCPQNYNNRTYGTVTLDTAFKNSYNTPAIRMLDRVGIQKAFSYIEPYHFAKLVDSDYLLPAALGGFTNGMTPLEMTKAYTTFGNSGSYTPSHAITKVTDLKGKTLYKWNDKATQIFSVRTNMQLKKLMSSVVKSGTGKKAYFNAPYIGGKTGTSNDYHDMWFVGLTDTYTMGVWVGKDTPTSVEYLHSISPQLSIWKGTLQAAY
Experimental: PBP4 BOCILLIN™ FL Binding Competition Assays. The ability of putative PBP4 inhibitors to impact the active site of recombinant PBP4 was assessed using two previously established BOCILLIN™-FL Penicillin (Penicillin V conjugated to BODIPY fluorescent dye) binding assays. First, fluorescence polarization assays were performed as previously described. Briefly, the indicated amount of the putative PBP4 inhibitor or control antibiotic was incubated with 1 μM recombinant B. subtilis PBP4 or S. aureus PBP2a in potassium phosphate buffer (40 mM K2HPO4 and 10 mM KH2PO4) for 1 hour in black 96-well microtiter plates (Corning Life Sciences®, Corning, NY). Following incubation, 1 μM (final concentration) BOCILLIN™ FL penicillin was added, and the mixture was incubated for 30 minutes. BOCILLIN™ FL fluorescence polarization was measured at (495nm excitation and 545nm emission) in a SpectraMax® M5 multimode plate reader (Molecular Devices®, San Jose, CA). All assays were repeated at least 8 times, averaged, and values falling outside of 2 standard deviations were considered outliers. Resulting data was plotted as percentage BOCILLIN™ FL binding inhibition=(T/U)×100; T=FL polarization of ((PBP4+BOCILLIN™ FL)−(PBP4+BOCILLIN™ FL+inhibitor compound)), U=FL polarization of ((PBP4+BOCILLIN™ FL)−(BOCILLIN™ FL)). Second, gel electrophoresis and fluorescence detection were used to measure BOCILLIN™ FL labeling of PBP4 treated with the known PBP4 inhibitor cefoxitin (positive control), kanamycin (negative control) or 9314848 (test compound). Briefly, 1 μM of recombinant PBP4 was mixed with 0, 50, 500, 2000, or 5000 μM 9314848 or control antibiotic in 50 mM phosphate buffer (pH 7.4) and incubated at 37° C. for 30 minutes. Next 40 μM of BOCILLIN™ FL was added to the reaction mixture and incubated for an additional 30 minutes at 37° C. Reactions were stopped by adding 5×SDS-PAGE gel loading dye, heated at 100° C. for 3 minutes and separated by electrophoresis in 12% SDS-PAGE (2 h, 120 Volts). BOCILLIN™ FL labeled PBP4 was imaged at λ=365 nm using a BioRad© Gel Doc EZ™ Imaging system and the gel was then subsequently stained with Bio-safe Coomassie Brilliant Blue stain (BioRad©, Hercules, CA, USA) to measure the amount of protein present in each reaction condition and analyzed using NIH-ImageJ software. The percent BOCILLIN™ FL binding was calculated by first normalizing the protein present in each reaction condition to that of untreated control and subsequently applying each reaction's protein normalization factor to each reaction's fluorescent signal. The percentage BOCILLIN™ FL binding inhibition was then calculated as the normalized band intensity of antibiotic/compound treated sample as compared to control sample (PBP4+BOCILLIN™ FL in the absence of compound).
To more directly evaluate whether 9314848 is likely to affect PBP4 function, the compound's ability to bind recombinant PBP4 was measured using BOCILLIN™ FL fluorescence polarization displacement assays. The premise for the assay is that the fluorescence polarization of the fluorescently labeled β-lactam, penicillin V (BOCILLIN™ FL), will increase upon binding to its cognate target (i.e., PBP4). Further, compounds that bind PBP4 and inhibit its function would impede BOCILLIN™ FL binding thereby allowing assessment of the protein binding affinity of 9314848 using a simple fluorescence reduction assay.

MRSA strain 700699 = assay: Broth microdilution antibiotic potentiation; type: cell-based; details: Staphylococcus aureus, read-out: Oxacillin MIC, no compound (—)
Experimental: as §1

MRSA strain BAA-1685 = assay: Broth microdilution antibiotic potentiation; type: cell-based; details: Staphylococcus aureus, read-out: Oxacillin MIC, no compound (—)
Experimental: as §1

MRSA strain BAA-811 = assay: Broth microdilution antibiotic potentiation; type: cell-based; details: Staphylococcus aureus, read-out: Oxacillin MIC, no compound (—)
Experimental: as §1

MRSA strain BAA-44 = assay: Broth microdilution antibiotic potentiation; type: cell-based; details: Staphylococcus aureus, read-out: Oxacillin MIC, no compound (—)
Experimental: as §1

MRSA strain 700789 = assay: Broth microdilution antibiotic potentiation; type: cell-based; details: Staphylococcus aureus, read-out: Oxacillin MIC, no compound (—)
Experimental: (§2) Broth Microdilution Method for Antibiotic Potentiation with MRSA Strains. Bacteria were cultured for 6 hours in CAMHB and sub-cultured to 5×10^5 CFU/mL in CAMHB. Subcultures were aliquoted (4 mL) into culture tubes and then inoculated with compound from 10 mM or 100 mM stock in DMSO to the desired concentration. […] Bacteria treated with antibiotic alone served as the control. Samples from the secondary culture tubes were then aliquoted (200 μL) into the first row of wells of a 96-well microtiter plate. Rows 2-11 were filled (100 μL) with the remaining 4 mL of bacterial subculture containing the adjuvant. Row 12 was filled (100 μL) with uninoculated media. From row 1, 100 μL was transferred to row two and mixed 5-8 times before being transferred to row 3. This procedure was used to serial dilute the rest of the rows through 10. The microtiter plate was then covered in Press 'n Seal and incubated at 37° C.

MRSA strain 43300 = assay: Broth microdilution antibiotic potentiation; type: cell-based; details: Staphylococcus aureus, read-out: Oxacillin MIC, no compound (—)
Experimental: as §2

MRSA strain BAA-1770 = assay: Broth microdilution antibiotic potentiation; type: cell-based, Staphylococcus aureus; details: Staphylococcus aureus, read-out: Oxacillin MIC, no compound (—)
Experimental: as §2

| Structure (SMILES) | Effect of preincubation on BOCILLIN FL labeling of PBP4 (gel) (recombinant PBP4) | MIC (MRSA strain AH-1263; AH-1263, read-out: Ampicillin MIC, no compound (—)) | MIC ([1]; ATCC BAA-1556, read-out: Ampicillin MIC, no compound (—)) | MIC (MRSA strain AH-2204; AH-2204, read-out: Ampicillin MIC, no compound (—)) | Effect of preincubation on BOCILLIN FL binding to PBP4 (fluorescence polarization) [2] | Concentration of maximum BOCILLIN FL binding inhibition ([2]; dose-response 0-50 μM) | MIC (MRSA strain 700699) | MIC (MRSA strain BAA-1685) | MIC (MRSA strain BAA-811) | MIC (MRSA strain BAA-44) | MIC (MRSA strain 700789) | MIC (MRSA strain 43300) | Oxacillin MIC, no compound (—) (MRSA strain AH-1263; AH-1263) | MIC (MRSA strain AH-1263; read-out: Oxacillin MIC, no compound (—), AH-1263) | Oxacillin MIC, no compound (—) ([1]; ATCC BAA-1556) | MIC ([1]; read-out: Oxacillin MIC, no compound (—), ATCC BAA-1556) | MIC (MRSA strain AH-2204; read-out: Oxacillin MIC, no compound (—), AH-2204) | MIC (MRSA strain BAA-1770) |
| --- | --- | --- | --- | --- | --- | --- | --- | --- | --- | --- | --- | --- | --- | --- | --- | --- | --- | --- |
| CC1(C)S[C@@H]2[C@H](NC(=O)[C@H](N)c3ccccc3)C(=O)N2[C@H]1C(=O)O [Ampicillin, ampicillin] | reduced the protein's ability to bind the fluorescent substrate in a dose-dependent manner | 16 µg/mL | 16 µg/mL | 2 µg/mL | limited BOCILLIN™ FL binding | 25 to 50 µM | – | – | – | – | – | – | – | – | – | – | – | – |
| Cc1onc(-c2ccccc2)c1C(=O)N[C@@H]1C(=O)N2[C@@H]1SC(C)(C)[C@@H]2C(=O)O [Oxacillin, oxacillin] | – | – | – | – | – | – | 16 µg/mL | 64 µg/mL | 256 µg/mL | 16 µg/mL | 256 µg/mL | 512 µg/mL | 32 µg/mL | 16 µg/mL | 32 µg/mL and 16 µg/mL | 32 µg/mL | 32 µg/mL | 512 µg/mL |
